Reference: patent US20240246954A1, “COMPOSITIONS AND METHODS FOR INHIBITING KRAS” (TheRas, Inc., priority 2021, published 2024)

Experiments:
[1] = biological target: T1, Avi-KRAS G12D (1-169) GppNHp/RAF1 RBD-3×FLAG (52-151) (Homo sapiens, UniProt P01116, G12D); assay: HTRF Raf1-KRAS G12D-GppNHp disruption assay; type: biochemical; details: 1 h incubation
T1 construct: Avi-KRAS G12D (1-169) GppNHp
Outline: (§1)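 HTRF read-out (320 nm excitation, 615 nm emission) after two 1 h room-temperature incubations, first with protein mix, then detection reagents. Ten-point dilution series starting at 100 μM; results given as % activity relative to DMSO at 100%.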

GppNHp KRAS G12D = GppNHp KRAS G12D (Homo sapiens, UniProt P01116, G12D); assay: SPR binding affinity, GppNHp KRAS G12D; details: GppNHp-bound KRAS G12D
GppNHp KRAS G12D, sequence (P01116 1-188 isoform P01116-2 G12D): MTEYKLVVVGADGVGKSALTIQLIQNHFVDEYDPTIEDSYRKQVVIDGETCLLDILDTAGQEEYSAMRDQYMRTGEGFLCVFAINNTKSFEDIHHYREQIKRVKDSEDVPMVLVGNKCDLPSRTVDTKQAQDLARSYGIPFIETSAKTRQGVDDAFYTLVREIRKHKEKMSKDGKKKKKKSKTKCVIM

[2] = biological target: T2, Avi-KRAS G12D/Q25A (1-169) GppNHp/3×FLAG-PI3KCA (157-299) (Homo sapiens, UniProt P01116, G12D/Q25A); assay: HTRF PI3KCA-KRAS G12D/Q25A-GppNHp disruption assay; type: biochemical; details: 1 h incubation
T2 construct: Avi-KRAS G12D/Q25A (1-169) GppNHp
T2 sequence (P01116 1-169 isoform P01116-2 G12D/Q25A limits assumed): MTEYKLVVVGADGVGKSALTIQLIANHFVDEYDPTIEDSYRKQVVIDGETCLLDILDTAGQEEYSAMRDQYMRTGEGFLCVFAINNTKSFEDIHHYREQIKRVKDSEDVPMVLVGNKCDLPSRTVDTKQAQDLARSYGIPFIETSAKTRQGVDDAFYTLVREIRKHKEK
Outline: as §1

[3] = tested on: pERK in GP2d cells (KRAS G12D); assay: Cell-based pERK HTRF assay; details: GP2d, 1 h, 60 min incubation
Outline: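 GP2d cells (DMEM, 10% FBS) treated 60 min with compounds in a 9-point half-log series from 1 μM top concentration, 0.25% DMSO. Lysates read for pERK by HTRF (d2/Eu cryptate antibodies) after 4–24 h at room temperature; emission at 615 nm.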

T1 sequence (P01116 1-169 isoform P01116-2 G12D limits assumed): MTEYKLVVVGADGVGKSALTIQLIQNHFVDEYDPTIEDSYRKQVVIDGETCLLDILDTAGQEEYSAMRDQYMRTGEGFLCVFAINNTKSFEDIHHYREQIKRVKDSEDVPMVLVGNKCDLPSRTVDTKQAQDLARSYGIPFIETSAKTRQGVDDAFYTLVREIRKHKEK

SMILES	IC50 [1] [nM]	Kd (GppNHp KRAS G12D) [nM]	IC50 [2] [nM]	IC50 [3] [nM]
CN1CCC[C@H]1COc1nc(N2CCN(C(=O)CN)[C@@H](CC#N)C2)c2cc(Cl)c(-c3ccc(F)c4sc(N)nc34)c(O)c2n1 [Compound 59]	10000 to 30000	1000 to 10000	10000 to 30000	–
CO[C@@H]1CN(C)C[C@H]1Oc1nc(NCCN)c2cc(Cl)c(-c3ccc(F)c4sc(N)nc34)c(F)c2n1 [Compound 60]	10000 to 30000	10000 to 30000	10000 to 30000	–
CO[C@@H]1C[C@@H](COc2nc(NCCN)c3cc(Cl)c(-c4ccc(F)c5sc(N)nc45)c(F)c3n2)N(C)C1 [Compound 61]	1000 to 10000	1000 to 10000	1000 to 10000	–
Cc1ccc2[nH]ncc2c1-c1c(Cl)cc2c(NCCN)nc(OC[C@@H]3CCCN3C)nc2c1F [Compound 62]	10000 to 30000	10000 to 30000	10000 to 30000	–
CO[C@@H]1CN(C)C[C@H]1Oc1nc(N2CCNCC2)c2cc(Cl)c(-c3ccc(F)c4sc(N)nc34)c(F)c2n1 [Compound 63]	10000 to 30000	10000 to 30000	10000 to 30000	–
CN1CCC[C@H]1COc1nc(NCCN)c2cc(Cl)c(-c3cccc4cc(O)ccc34)c(F)c2n1 [Compound 74]	10000 to 30000	10000 to 30000	10000 to 30000	–
NCCNc1nc(OCC23CCCN2CCC3)nc2c(F)c(-c3ccc(F)c4sc(N)nc34)c(Cl)cc12 [Compound 77]	1000 to 10000	100 to 1000	1000 to 10000	–
Nc1c(F)c(F)c(F)c(-c2c(C(F)(F)F)cc3c(N4CC5CCC(C4)N5)nc(OCC45CCCN4CCC5)nc3c2F)c1Cl [Compound 346]	10000 to 30000	–	10000 to 30000	> 1000
CN(c1nc(OC[C@@]23CCCN2C[C@H](F)C3)nc2cc(-c3ccc(F)c4sc(N)c(C#N)c34)c(C(F)(F)F)cc12)[C@H]1CNC[C@H]1F [Compound 347]	100 to 1000	–	100 to 1000	≤ 100
Nc1nc2c(-c3c(C(F)(F)F)cc4c(N5CC[C@H]6CCNC[C@H]65)nc(OCC56CCCN5CCC6)nc4c3F)ccc(F)c2s1 [Compound 348]	1000 to 10000	–	1000 to 10000	> 1000
Nc1nc2c(-c3c(C(F)(F)F)cc4c(N5CC[C@@H]6CCNC[C@@H]65)nc(OCC56CCCN5CCC6)nc4c3F)ccc(F)c2s1 [Compound 349]	1000 to 10000	–	1000 to 10000	> 1000
Nc1nc2c(-c3c(C(F)(F)F)cc4c(N5CC[C@@H]6CNC[C@@H]65)nc(OC[C@@]56CCCN5C[C@H](F)C6)nc4c3F)ccc(F)c2s1 [Compound 351]	100 to 1000	–	100 to 1000	100 to 1000
Nc1nc2c(-c3c(C(F)(F)F)cc4c(N5CC[C@H]6CNC[C@H]65)nc(OC[C@@]56CCCN5C[C@H](F)C6)nc4c3F)ccc(F)c2s1 [Compound 352]	1000 to 10000	–	1000 to 10000	100 to 1000
CN(c1nc(OC[C@@]23CCCN2C[C@H](F)C3)nc2c(F)c(-c3ccc(F)c4sc(N)c(C#N)c34)c(C(F)(F)F)cc12)[C@H]1CNC[C@H]1F [Compound 353]	100 to 1000	–	100 to 1000	≤ 100
CN(c1nc(OC[C@@]23CCCN2C[C@H](F)C3)nc2cc(-c3ccc(F)c4sc(N)nc34)c(C(F)(F)F)cc12)[C@H]1CNC[C@H]1F [Compound 354]	100 to 1000	–	100 to 1000	100 to 1000
CN(c1nc(OC[C@@]23CCCN2C[C@H](F)C3)nc2c(F)c(-c3ccc(F)c4sc(N)c(C#N)c34)c(C(F)(F)F)cc12)[C@H]1CNC[C@@H]1F [Compound 355]	100 to 1000	–	1000 to 10000	≤ 100
CN(c1nc(OC[C@@]23CCCN2C[C@H](F)C3)nc2cc(-c3ccc(F)c4sc(N)c(C#N)c34)c(C(F)(F)F)cc12)[C@H]1CNC[C@@H]1F [Compound 356]	1000 to 10000	–	1000 to 10000	100 to 1000

SMILES	IC50 [1] [nM]	Kd (GppNHp KRAS G12D) [nM]	IC50 [2] [nM]	IC50 [3] [nM]
C[C@@H]1C[C@@H](N(C)c2nc(OC[C@@]34CCCN3C[C@H](F)C4)nc3c(F)c(-c4ccc(F)c5sc(N)c(C#N)c45)ccc23)CN1 [Compound 357]	1000 to 10000	–	1000 to 10000	100 to 1000
N#Cc1c(N)sc2c(F)ccc(-c3ccc4c(N5CC6CCC(C5)N6)nc(OC[C@@]56CCCN5C[C@H](F)C6)nc4c3F)c12 [Compound 358]	100 to 1000	–	1000 to 10000	≤ 100
N#Cc1cc2c(N3C[C@H]4CC[C@@H](C3)N4)nc(OC[C@@]34CCCN3C[C@H](F)C4)nc2c(F)c1-c1ccc(F)c2sc(N)c(C#N)c12 [Compound 359, 7-(2-amino-3-cyano-7-fluorobenzo[b]thiophen-4-yl)-4-((1R,5S)-3,8-diazabicyclo[3.2.1]octan-3-yl)-8-fluoro-2-(((2R,7aS)-2-fluorotetrahydro-1H-pyrrolizin-7a(5H)-yl)methoxy)quinazoline-6-carbonitrile]	100 to 1000	–	100 to 1000	≤ 100
CN(c1nc(OC[C@@]23CCCN2C[C@H](F)C3)nc2c(F)c(-c3ccc(F)c4sc(N)c(C#N)c34)c(C(F)(F)F)cc12)[C@]1(C)CCNC1 [Compound 360]	≤ 100	–	100 to 1000	≤ 100
CN(c1nc(OC[C@@]23CCCN2C[C@H](F)C3)nc2c(F)c(-c3ccc(F)c4sc(N)c(C#N)c34)c(F)cc12)[C@H]1CCNC1 [Compound 361, 2-amino-4-(6,8-difluoro-2-(((2R,7aS)-2-fluorotetrahydro-1H-pyrrolizin-7a(5H)-yl)methoxy)-4-(methyl((S)-pyrrolidin-3-yl)amino)quinazolin-7-yl)-7-fluorobenzo[b]thiophene-3-carbonitrile]	100 to 1000	–	100 to 1000	100 to 1000
N#Cc1c(N)sc2c(F)ccc(-c3c(C(F)(F)F)cc4c(N5C[C@H]6CC[C@@H](C5)N6)nc(N5CC(N6CC7(CC7)C6)C5)nc4c3F)c12 [Compound 363, 4-(2-(3-(5-azaspiro[2.3]hexan-5-yl)azetidin-1-yl)-4-((1R,5S)-3,8-diazabicyclo[3.2.1]octan-3-yl)-8-fluoro-6-(trifluoromethyl)quinazolin-7-yl)-2-amino-7-fluorobenzo[b]thiophene-3-carbonitrile]	100 to 1000	–	100 to 1000	≤ 100
CN(c1nc(OC[C@@]23CCCN2C[C@H](F)C3)nc2c(F)c(-c3ccc(F)c4sc(N)c(C#N)c34)c(C(F)(F)F)cc12)[C@@H]1CCN[C@@H]1CF [Compound 364]	≤ 100	–	100 to 1000	≤ 100
CN(c1nc(N2CC(N3CC4(CC4)C3)C2)nc2c(F)c(-c3ccc(F)c4sc(N)c(C#N)c34)c(C(F)(F)F)cc12)[C@@H]1CCNC1 [Compound 365]	100 to 1000	–	100 to 1000	100 to 1000
Nc1nc2c(-c3c(C(F)F)cc4c(N5C[C@H]6CC[C@@H](C5)N6)nc(OC[C@@]56CCCN5C[C@H](F)C6)nc4c3Cl)ccc(F)c2s1 [Compound 368, 4-(4-((1R,5S)-3,8-diazabicyclo[3.2.1]octan-3-yl)-8-chloro-6-(difluoromethyl)-2-(((2R,7aS)-2-fluorotetrahydro-1H-pyrrolizin-7a(5H)-yl)methoxy)quinazolin-7-yl)-7-fluorobenzo[d]thiazol-2-amine]	100 to 1000	–	100 to 1000	≤ 100
Nc1nc2c(-c3c(C(F)F)cc4c(N5C[C@H]6CC[C@@H](C5)N6)nc(OC[C@@]56CCCN5C[C@H](F)C6)nc4c3F)ccc(F)c2s1 [Compound 370, 4-(4-((1R,5S)-3,8-diazabicyclo[3.2.1]octan-3-yl)-6-(difluoromethyl)-8-fluoro-2-(((2R,7aS)-2-fluorotetrahydro-1H-pyrrolizin-7a(5H)-yl)methoxy)quinazolin-7-yl)-7-fluorobenzo[d]thiazol-2-amine]	100 to 1000	–	100 to 1000	≤ 100
N#Cc1c(-c2ccc(F)c3sc(N)c(C#N)c23)c(Cl)cc2c(N3CC4CCC(C3)N4)nc(OC[C@@]34CCCN3C[C@H](F)C4)nc12 [Compound 371]	100 to 1000	–	100 to 1000	≤ 100
N#Cc1cc2c(N3CC4CCC(C3)N4)nc(OC[C@@]34CCCN3C[C@H](F)C4)nc2c(Cl)c1-c1ccc(F)c2sc(N)c(C#N)c12 [Compound 372]	1000 to 10000	–	1000 to 10000	100 to 1000
Nc1nc2c(-c3cc4nc(OC[C@@]56CCCN5C[C@H](F)C6)nc(O[C@H]5CNC[C@@H]5F)c4cc3C(F)(F)F)ccc(F)c2s1 [Compound 374]	1000 to 10000	–	10000 to 30000	> 1000
N#Cc1c(N)sc2c(F)ccc(-c3c(C(F)(F)F)cc4c(N5CC[C@@H]6CNCC[C@@H]65)nc(OC[C@@]56CCCN5C[C@H](F)C6)nc4c3F)c12 [Compound 376]	100 to 1000	–	100 to 1000	≤ 100
CN(c1nc(OC[C@@]23CCCN2C[C@H](F)C3)nc2c(F)c(-c3ccc(F)c4sc(N)c(C#N)c34)c(F)cc12)[C@@H]1CCNC1 [Compound 377]	100 to 1000	–	100 to 1000	100 to 1000
C[C@@H]1CN(c2nc(OC[C@@]34CCCN3C[C@H](F)C4)nc3c(F)c(-c4ccc(F)c5sc(N)c(C#N)c45)c(C(F)(F)F)cc23)[C@@H](C)CN1 [Compound 378]	≤ 100	–	100 to 1000	≤ 100
CN(c1nc(OC[C@@]23CCCN2C[C@H](F)C3)nc2c(F)c(-c3ccc(F)c4sc(N)c(C#N)c34)c(Cl)cc12)[C@@H]1CCNC1 [Compound 379]	100 to 1000	–	100 to 1000	≤ 100
